According to patent publication US5597806A, “Antifungal agents” (Merck & Co., Inc., priority 1995, dated 1997):
Values after ≈ are worked out from the molar mass of the structure shown. Read-outs that look alike come from different tables or passages of the source.

Key:
Test in all cases: broth microdilution assay
[1] = tested on: Saccharomyces cerevisiae (MY2140); format: cell-based; settings: for MIC: complete clearing
Protocol: (§1) In the microbroth dilution assay, the selected microorganisms were grown by streaking a yeast culture on Sabouraud Dextrose agar (SDA) and incubating for 24-48 hr at 35°-37° C. Thereafter, 3-5 characteristic colonies were selected and transferred to CM-YNB+0.1% Dextrose Agar plates (1% Bactopeptone, 0.5% yeast extract, 6.7 g/L yeast nitrogen base with amino acids, 1 μM adenine, 0.1% dextrose, and 1.5% Bacto agar) and incubated overnight at 35°-37° C. From the regrowth, 3 to 5 colonies were selected and suspended in 5 ml of CM-YNBD media (same as above, only without agar) and incubated for 4-6 hr at 35°-37° C. shaking at 225 rpm. The broth cultures were adjusted spectrophotometrically to 86% transmission resulting in a concentration of 1-5×10^6 cfu/ml which was further diluted 1:100 (1:50 for Aspergillus) in CM-YNBD to obtain a concentration of 1-5 ×10^4 cfu/ml to use as inocula.
(§2) The test compounds were prepared as a stock solution of 512 μg/ml in 10% DMSO and 75 μl of said solution delivered to a well in column one of each 96 well, U-bottomed microtiter plate that already contained 75 μl of CM-YNBD media per well. In the first run of the assay, Compound I was then serially diluted two fold from column 1 to column 12 to yield concentrations from 256 μg/ml to 0,125 μg/ml.
(§3) Amphotericin B, the control compound, was prepared as a stock solution of 512 μg/ml in 10% DMSO and 75 μl of said solution delivered to a well in column one of each 96 well, U-bottomed microtiter plate that already contained 75 μl of CM-YNBD media per well. The compound was then serially diluted two fold from column 1 to column 12 to yield concentrations from 256 μg/ml to 0,125 μg/ml.
(§4) The plates containing the diluted compounds were then inoculated with 75 μl/well of the appropriate microorganism resulting in a further 2-fold dilution such that the final concentration of test compounds ranged between 128 and 0.06 μg/ml. The plates were incubated for 48 hours at 35°-37° C. with MIC (minimum inhibitory concentration) determinations carried out after 24 hours of incubation. Growth and sterility controls for each organism and sterility checks for the compounds also were carried out. In three cases, a modified MIC endpoint (MIC2) was used.
(§5) After recording MICs at 24 hours, samples are withdrawn to determine the MFC. The microtiter plates were shaken gently to resuspend the cells and […] sample was transferred from each well of the 96 well plate to the surface of a single reservoir inoculum plate containing 15 ml of SDA. The inoculated SDA and corresponding microtiter plates were incubated for 24 hours at 35°-37° C. For Cryptococcus neoformans, the MFC plates were inoculated after reading the 48 hour MICs and incubated for 48 hours before reading the MFC. The MFC is the lowest concentration of compound at which either no growth or growth of ≤3 colonies occurs.
(§6) In this run, Compound I was titrated from 64-0.03 μg/ml and Compound II was titrated from 128-0.06 μg/ml.

[2] = tested on: Candida guillermondii (MY1019); format: cell-based; settings: for MIC: complete clearing
Protocol: as §1, §2, §3, §4, §5, §6

[3] = tested on: Candida albicans (MY1055); format: cell-based
Protocol: as §1, §2, §3, §4, §5, §6

[4] = tested on: Saccharomyces cerevisiae (MY2141); format: cell-based; settings: for MIC: complete clearing
Protocol: as §1, §2, §3, §4, §5, §6

[5] = tested on: Candida parapsilosis (MY1010); format: cell-based; settings: Lodderomyces parapsilosis
Protocol: as §1, §2, §3, §4, §5, §6

[6] = tested on: Candida albicans (CLY539); format: cell-based; settings: for MIC: * = MIC2, prominent decrease in turbidity
Protocol: as §1, §2, §3, §4, §5, §6

[7] = tested on: Candida glabrata (MY1381); format: cell-based; settings: Nakaseomyces glabratus; for MIC: complete clearing
Protocol: as §1, §2, §3, §4, §5, §6

[8] = tested on: Cryptococcus neoformans (MY2062); format: cell-based; settings: complete clearing
Protocol: as §1, §2, §3, §4, §5, §6

[9] = tested on: Candida albicans (CA2); format: cell-based; settings: comparative run, I 64-0.03, II 128-0.06 μg/ml, complete clearing
Protocol: as §1, §2, §3, §4, §5, §6

[10] = tested on: Candida tropicalis (MY1124); format: cell-based
Protocol: as §1, §2, §3, §4, §5, §6

[11] = tested on: Candida tropicalis (MY1012); format: cell-based; settings: for MIC: complete clearing
Protocol: as §1, §2, §3, §4, §5, §6

[12] = tested on: Aspergillus fumigatus (MF4839); format: cell-based; settings: for MIC: complete clearing
Protocol: as §1, §2, §3, §4
(§7) No MFC values are indicated for Aspergillus fumigatus since colony counts are unreliable with filamentous species. Instead, a Minimum Effective Concentration (MEC) is reported for A. fumigatus. The MEC is defined as the lowest concentration of drug which effects a severe morphological change in the cells. The MEC is scored […] by direct observation of the microtiter plate wells after 24 hours and reflects microscopic alterations in cell morphology (Kurtz et al. AAC:38:1480-1489[94]).
as §6

[13] = tested on: Aspergillus fumigatus (MF5668); format: cell-based; settings: for MIC: complete clearing
Protocol: as §1, §2, §3, §4, §7, §6

[14] = tested on: Candida pseudotroplicalis (MY2099); format: cell-based, Candida pseudotropicalis; settings: for MIC: complete clearing
Protocol: as §1, §2, §3, §4
After recording MICs at 24 hours, samples are withdrawn to determine the MFC. The microtiter plates were shaken gently to resuspend the cells and […] sample was transferred from each well of the 96 well plate to the surface of a single reservoir inoculum plate containing 15 ml of SDA. The inoculated SDA and corresponding microtiter plates were incubated for 24 hours at 35°-37° C. For Cryptococcus neoformans, the MFC plates were inoculated after reading the 48 hour MICs and incubated for 48 hours before reading the MFC. […]

[15] = comparative run, I 64-0.03, II 128-0.06 μg/ml
[16] = comparative run, II 128-0.06 μg/ml, * = MIC2, prominent decrease in turbidity, read-out: MIC2
[17] = first run, 128-0.06 μg/ml, 24 h
[18] = first run, 128-0.06 μg/ml, no growth or ≤3 colonies
[19] = comparative run, I 64-0.03 μg/ml, complete clearing, read-out: MIC
[20] = first run, 128-0.06 μg/ml, 24 h, * = MIC2, prominent decrease in turbidity, read-out: MIC2
[21] = first run, lowest concentration effecting severe morphological change, 24 h, read-out: MEC

With `C=C(CCC(C)C1CCC2(C(=O)O)C3=C(CCC12C)C1(C)CCC(OC2OC(CO)C(O)C(O)C2O)C(=C)C1CC3)C(C)C` (stereo not shown) [Compound II] the MIC [1, 15] was 1 µg/mL (≈ 1.62 µM), the MIC [2, 15] was > 128 µg/mL and the MIC [3, 16] was 1 µg/mL (≈ 1.62 µM). The MIC [4, 15] was < 0.06 µg/mL, the MIC [5, 16] was 2 µg/mL (≈ 3.24 µM) and the MIC [6, 15] was > 128 µg/mL. The MIC [7, 15] was 0.5 µg/mL (≈ 0.811 µM), the MIC [8, 15] was > 128 µg/mL and the MIC [9] was > 128 µg/mL. For the same molecule, the MIC ([10]; comparative run, II 128-0.06 μg/ml, complete clearing, read-out: MIC) was 0.5 µg/mL (≈ 0.811 µM), the MIC [11, 15] was 8 µg/mL (≈ 13 µM) and the MIC [12, 15] was > 128 µg/mL. The MIC [13, 15] was > 128 µg/mL and the MIC [14, 15] was < 0.06 µg/mL.

`C=C(CCC(C)C1CC(O)C2(C(=O)O)C3=C(CCC12C)C1(C)CCC(OC2OC(CO)C(OC)C(O)C2O)C(=C)C1CC3)C(C)C` (stereo not shown) [Compound I] showed an MIC [1, 15] of 4 µg/mL (≈ 6.18 µM), an MIC [1, 17] of 8 µg/mL (≈ 12.4 µM) and an MFC [1, 18] of 4 µg/mL (≈ 6.18 µM). For the same molecule, the MIC [2, 15] was > 64 µg/mL, the MIC [2, 17] was > 128 µg/mL and the MFC [2, 18] was > 128 µg/mL. For the same molecule, the MIC [3, 19] was < 0.03 µg/mL, the MIC [3, 20] was 2 µg/mL (≈ 3.09 µM) and the MFC [3, 18] was < 0.06 µg/mL. The MIC [4, 15] was < 0.03 µg/mL, the MIC [4, 17] was < 0.06 µg/mL and the MFC [4, 18] was < 0.06 µg/mL. The MIC [5, 19] was < 0.03 µg/mL, the MIC ([5]; first run, 128-0.06 μg/ml, 24 h, complete clearing, read-out: MIC) was < 0.06 µg/mL and the MFC [5, 18] was < 0.06 µg/mL. The MIC [6, 15] was < 0.03 µg/mL, the MIC [6, 17] was 0.5 µg/mL (≈ 0.773 µM) and the MFC [6, 18] was > 128 µg/mL. The MIC [7, 17] was < 0.06 µg/mL, the MFC [7, 18] was < 0.06 µg/mL and the MIC [8, 15] was > 64 µg/mL. For the same molecule, the MIC ([8]; first run, 128-0.06 μg/ml) was 32 µg/mL (≈ 49.5 µM), the MIC [9] was > 64 µg/mL and the MIC ([10]; comparative run, I 64-0.03 μg/ml, * = MIC2, prominent decrease in turbidity, read-out: MIC2) was < 0.03 µg/mL. For the same molecule, the MIC [10, 20] was 0.25 µg/mL (≈ 0.386 µM), the MFC [10, 18] was 0.125 µg/mL (≈ 0.193 µM) and the MIC [11, 15] was 8 µg/mL (≈ 12.4 µM). For the same molecule, the MIC [11, 17] was 8 µg/mL (≈ 12.4 µM), the MFC [11, 18] was 8 µg/mL (≈ 12.4 µM) and the MIC [12, 15] was > 64 µg/mL. The MIC [12, 17] was > 128 µg/mL, the minimal effective concentration [12, 21] was 0.25 µg/mL and the MIC [13, 15] was > 64 µg/mL. For the same molecule, the MIC [13, 17] was > 128 µg/mL, the minimal effective concentration [13, 21] was < 0.06 µg/mL and the MIC [14, 15] was < 0.03 µg/mL. For the same molecule, the MIC [14, 17] was < 0.06 µg/mL and the MFC [14, 18] was < 0.06 µg/mL.
